Literature values in US20030054382A1, “Infection of eukaryotic cells with viruses in vitro” (priority 1999, published 2003).

System: HCV
Settings: pretreatment of the cells to be infected

dextran sulfate
attachment of HCV to the cell surface and infection of the cells: inhibits the attachment of HCV to the cell surface and prevents any infection of the cells
